Reference: patent US20200392107A1, “CYCLIC AMINE DERIVATIVE AND MEDICAL USE THEREOF” (Toray Industries, Inc., priority 2018, published 2020)

Columns and labels:
[1] = system: oxazolone-induced mouse atopic dermatitis model; assay: Oxazolone-induced mouse atopic dermatitis model; type: in vivo; conditions: 10 mg/kg orally once daily for 15 days from sensitization day; BALB/c mice; vs vehicle, P<0.05
Procedure: Using increase in the ear thickness as an index of exacerbation of symptoms, the effect of the cyclic amine derivative (I) or a pharmacologically acceptable salt thereof in an oxazolone-induced mouse atopic dermatitis model was evaluated. The oxazolone-induced mouse atopic dermatitis model was prepared by a partially modified method by Nakajima et al. (Journal of Investigative Dermatology, 2014, Vol. 134, p. 2122-2130).
BALB/c mice (female, 7 weeks old) (Charles River Laboratories Japan, Inc.) were used at 8 weeks old after preliminary breeding. To the back of the mice, 25 μL of a 3 w/v % oxazolone solution dissolved in ethanol was applied to sensitize the mice. Every other day from 5 days to 13 days after the sensitization, 10 μL each of a 0.6 w/v % oxazolone solution dissolved in ethanol was applied to both sides of the right auricle of the sensitized mice to induce inflammation.
A test compound at a dose of 10 mg/kg was administered to the mice once daily for 15 days from the sensitization day to 14 days after sensitization. As the test compound, the compound of Example 1, the compound of Example 4, and the compound of Example 9 were used. The compound of Example 1, the compound of Example 4, and the compound of Example 9 were suspended in a 0.5 w/v % methylcellulose solution and orally administered. The group in which the compound of Example 1 was administered to mice was defined as the Example-1 compound administration group, the group in which the compound of Example 4 was administered was defined as the Example-4 compound administration group, and the group in which the compound of Example 9 was administered was defined as the Example-9 compound administration group. In the vehicle administration group, a vehicle of each test compound (0.5 w/v % methylcellulose solution) was similarly administered.
The right ear thickness before application of the oxazolone solution (before sensitization) on the sensitization day and the right ear thickness on the next day of final induction were measured with a digital micrometer (Mitutoyo Corporation). […]

[2] = system: DNFB-induced mouse allergic dermatitis model; assay: DNFB-induced mouse allergic dermatitis model; type: in vivo; conditions: 10 mg/kg orally one hour before induction; BALB/c mice; vs vehicle, P<0.05
Procedure: Using increase in the ear swelling rate as an index of exacerbation of symptoms, the effect of the cyclic amine derivative (I) or a pharmacologically acceptable salt thereof in a DNFB-induced mouse allergic dermatitis model was evaluated. The DNFB-induced mouse allergic dermatitis model was prepared by a partially modified method by Curzytek et al. (Pharmacological Reports, 2013, Vol. 65, p. 1237-1246).
BALB/c mice (female, 6 weeks old) (Charles River Laboratories Japan, Inc.) were used at 8 weeks old after preliminary breeding. To the back of the mice, 25 μL of a 0.5 v/v % DNFB solution dissolved in acetone:olive oil (4:1) was applied. The next day, the same operation was repeated to sensitize the mice. Four days after the sensitization, 10 μL each of a 0.2 v/v % DNFB solution dissolved in acetone:olive oil (4:1) was applied to both sides of the right auricle of the sensitized mice to induce inflammation.
One hour before induction, a test compound at a dose of 10 mg/kg was administered to the mice. As the test compound, the compound of Example 1, the compound of Example 4, and the compound of Example 9 were used. The compound of Example 1, the compound of Example 4, and the compound of Example 9 were respectively suspended in a 0.5 w/v % methylcellulose solution and orally administered. The group in which the compound of Example 1 was administered to mice was defined as the Example-1 compound administration group, the group in which the compound of Example 4 was administered was defined as the Example-4 compound administration group, and the group in which the compound of Example 9 was administered was defined as the Example-9 compound administration group. […]
The right ear thickness before application of the DNFB solution (before induction) on the induction day and the right ear thickness at the 24th hour after induction were measured with a digital micrometer (Mitutoyo Corporation). The swelling rate of the auricle was calculated by Formula (3) and used as an index of the drug efficacy evaluation: […]

CC(=O)N1CCCC[C@@H]1C(=O)Nc1cc(Cl)c2c(c1)CCN2C[C@H]1CC[C@H](C(F)(F)F)CC1 [Example 9, (R)-1-acetyl-N-(7-chloro-1-((trans-4-(trifluoromethyl)cyclo-hexyl)methyl)indolin-5-yl)piperidine-2-carboxamide]
increase in the ear thickness (change in the ear thickness, next day of final induction) [1]: statistically significantly suppressed | increase in the ear swelling rate (24th hour after induction) [2]: statistically significantly suppressed

CC(=O)N1CCCC[C@@H]1C(=O)Nc1cc(Cl)c2c(c1)CCN2Cc1ccc(C(F)(F)F)cc1 [Example 4, (R)-1-acetyl-N-(7-chloro-1-(4-(trifluoromethyl)benzyl)indolin-5-yl)piperidine-2-carboxamide]
increase in the ear thickness (change in the ear thickness, next day of final induction) [1]: statistically significantly suppressed | increase in the ear swelling rate (24th hour after induction) [2]: statistically significantly suppressed

CC(=O)N1CCCC[C@@H]1C(=O)Nc1cc(Cl)c2c(c1)CCCN2Cc1ccc(C(F)(F)F)cc1 [Example 1, (R)-1-acetyl-N-(8-chloro-1-(4-(trifluoromethyl)benzyl)-1,2,3,4-tetrahydroquinolin-6-yl)piperidine-2-carboxamide]
increase in the ear thickness (change in the ear thickness, next day of final induction) [1]: statistically significantly suppressed | increase in the ear swelling rate (24th hour after induction) [2]: statistically significantly suppressed
